One test addresses Substance-P receptor (Homo sapiens, UniProt P25103). Kind of test: Displacement of [3H]-labeled substance P from cloned human NK1 receptor expressed in CHO cells. It counts as cell-based.
Details: not given
A general note: Loss of bound radioactivity is the signal in a displacement assay; it reports binding, not function.
Sequence of Substance-P receptor (P25103 whole entry): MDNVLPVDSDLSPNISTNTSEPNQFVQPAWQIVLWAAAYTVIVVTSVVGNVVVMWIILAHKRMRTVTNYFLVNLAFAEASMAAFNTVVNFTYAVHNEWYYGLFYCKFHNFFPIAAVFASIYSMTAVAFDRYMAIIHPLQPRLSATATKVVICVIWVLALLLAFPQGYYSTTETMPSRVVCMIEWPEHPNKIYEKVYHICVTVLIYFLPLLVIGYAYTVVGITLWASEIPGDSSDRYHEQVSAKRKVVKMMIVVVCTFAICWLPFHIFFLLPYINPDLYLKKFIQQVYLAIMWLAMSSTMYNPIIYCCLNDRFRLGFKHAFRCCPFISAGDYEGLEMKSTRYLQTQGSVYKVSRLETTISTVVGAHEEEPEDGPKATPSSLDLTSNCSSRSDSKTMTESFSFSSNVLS
In general, Ki refers to the dissociation constant of the complex between target and ligand, obtained from inhibition or displacement. A high value points to a looser hold on the target. With `CN(Cc1cc(C(F)(F)F)cc(C(F)(F)F)c1)Cc1ccccc1-c1ccccc1`, the inhibitory constant (Ki) came to 724 nM.

In the case of `Cc1ccccc1-c1cnccc1N(C)C(=O)C(C)(C)c1cc(C(F)(F)F)cc(C(F)(F)F)c1`, the affinity, expressed as Ki, was 3.3 nM. Against the preceding molecule, the Ki is about 220-fold lower.

For the molecule `Cc1onc(-c2c(Cl)cccc2Cl)c1/C=N/Nc1c(Cl)cncc1Cl`, the Ki was 15 nM. This Ki is about 4.5-fold higher than that of the molecule before.

Molecule `CN(Cc1cc(C(F)(F)F)cc(C(F)(F)F)c1)C(=O)c1ccccc1-c1ccccc1Br` yielded a Ki of 45 nM.

For the molecule `Cc1ccccc1-c1nc(N2CCN(C)CC2)ncc1N(C)C(=O)C(C)(C)c1cc(C(F)(F)F)cc(C(F)(F)F)c1`, the Ki stood at 0.44 nM.

As to `CN(C(=O)Cc1cc(C(F)(F)F)cc(C(F)(F)F)c1)c1ccccc1-c1ccccc1`, affinity was put at a Ki of 562 nM.

Turning to `CN(Cc1cc(C(F)(F)F)cc(C(F)(F)F)c1)C(=O)c1ccccc1-c1ccccc1Cl`, affinity was put at a Ki of 22 nM.

In turn, `Cc1ccccc1-c1cccnc1N(C)C(=O)C(C)(C)c1cc(C(F)(F)F)cc(C(F)(F)F)c1` yielded a Ki of 4 nM.

`CN(Cc1cc(C(F)(F)F)cc(C(F)(F)F)c1)C(=O)c1ccccc1-c1ccccc1` registered a Ki of 51 nM.

`Cc1ccccc1-c1cccnc1C(=O)N(C)Cc1cc(C(F)(F)F)cc(C(F)(F)F)c1`: the Ki came to 3.8 nM.

As for `Clc1ccccc1-c1ccccc1/C=N/Nc1c(Cl)cncc1Cl`, the Ki was determined as 174 nM.

Molecule `Cc1ccccc1-c1cc(N2CCN(C)CC2)ncc1N(C)C(=O)C(C)(C)c1cc(C(F)(F)F)cc(C(F)(F)F)c1` [NETUPITANT] had a Ki of 0.95 nM.

`Cc1ccccc1-c1cc(N2CCC(O)CC2)ncc1N(C)C(=O)C(C)(C)c1cc(C(F)(F)F)cc(C(F)(F)F)c1` showed a Ki of 0.4 nM.

Take `Cc1ccccc1-c1nc(N2CCN(C)CC2)ncc1C(=O)N(C)Cc1cc(C(F)(F)F)cc(C(F)(F)F)c1`: the Ki stood at 1.7 nM.

Take `Cc1ccccc1-c1cnccc1C(=O)N(C)Cc1cc(C(F)(F)F)cc(C(F)(F)F)c1`: the Ki came to 4.6 nM.

In turn, `Clc1cncc(Cl)c1N/N=C/c1ccccc1-c1c(Cl)cccc1Cl` came in with an inhibition constant Ki of 93 nM.

`Cc1ccccc1-c1cnc(N2CCN(C)CC2)cc1N(C)C(=O)C(C)(C)c1cc(C(F)(F)F)cc(C(F)(F)F)c1` gave a Ki of 1.7 nM.

`Cc1ccccc1-c1ccncc1C(=O)N(C)Cc1cc(C(F)(F)F)cc(C(F)(F)F)c1` came in with an inhibitory constant (Ki) of 8.5 nM. Compared with the last molecule, the Ki is about 5-fold higher.

As to `CN(C(=O)C(C)(C)c1cc(C(F)(F)F)cc(C(F)(F)F)c1)c1ccccc1-c1ccccc1`, the Ki stood at 68 nM.

The molecule `Cc1ccccc1-c1ccccc1/C=N/Nc1c(Cl)cncc1Cl` had a Ki of 316 nM.

`Cc1ccccc1-c1ccc(N2CCN(C)CC2)nc1C(=O)N(C)Cc1cc(C(F)(F)F)cc(C(F)(F)F)c1` had a Ki of 6.2 nM. This Ki is about 51-fold lower than that of the molecule before.

As for `Clc1cncc(Cl)c1N/N=C/c1ccccc1-c1ccccc1Br`, the affinity, expressed as Ki, was 49 nM. Against the preceding molecule, the Ki is about 7.9-fold higher.

On to `Cc1ccccc1-c1cnc(N2CCN(C)CC2)nc1N(C)C(=O)C(C)(C)c1cc(C(F)(F)F)cc(C(F)(F)F)c1`, for which the Ki was found to be 1.1 nM.

The molecule `FC(F)(F)c1cc(CNCc2ccccc2-c2ccccc2)cc(C(F)(F)F)c1` yielded a Ki of 372 nM. This Ki lies about 340-fold higher than the previous one.

Take `CN(C(=O)c1ccccc1-c1ccccc1)C(C)(C)c1cc(C(F)(F)F)cc(C(F)(F)F)c1`: the Ki was determined as 295 nM.

`CC(C)(NC(=O)c1ccccc1-c1ccccc1)c1cc(C(F)(F)F)cc(C(F)(F)F)c1` displayed a Ki of more than 10000 nM.

For the molecule `Cc1ccccc1-c1cc(N2CCS(=O)(=O)CC2)ncc1N(C)C(=O)C(C)(C)c1cc(C(F)(F)F)cc(C(F)(F)F)c1`, affinity was put at a Ki of 1.3 nM.

In the case of `FC(F)(F)c1cc(COCc2ccccc2-c2ccccc2)cc(C(F)(F)F)c1`, the inhibitory constant (Ki) stood at 224 nM.

`O=C(NCc1cc(C(F)(F)F)cc(C(F)(F)F)c1)c1ccccc1-c1ccccc1` displayed an inhibitory constant (Ki) of more than 10000 nM.

`Clc1cncc(Cl)c1N/N=C/c1ccccc1-c1ccccc1` returned an inhibition constant Ki of 933 nM. In other words, the sub-micromolar range.

With `Cc1ccccc1-c1ccc(N2CCN(C)CC2)nc1N(C)C(=O)C(C)(C)c1cc(C(F)(F)F)cc(C(F)(F)F)c1`, the affinity, expressed as Ki, was 2 nM. This Ki lies about 470-fold lower than the previous one.

For `Cc1ccccc1-c1cc(N2CCN(C)CC2)ccc1C(=O)N(C)Cc1cc(C(F)(F)F)cc(C(F)(F)F)c1`, the affinity corresponds to a Ki of 1.4 nM.

The subject of the next test is Gerbil, jird. Kind of test: Inhibition of GR-73632 induced foot tapping in gerbil, po. Conditions: Meriones, read-out: ID50 (the source's name). It counts as functional.
Regarding `Cc1ccccc1-c1cc(N2CCN(C)CC2)ncc1N(C)C(=O)C(C)(C)c1cc(C(F)(F)F)cc(C(F)(F)F)c1` [NETUPITANT], the ED50 is 0.5 mg/kg.

For `Cc1ccccc1-c1cc(N2CCC(O)CC2)ncc1N(C)C(=O)C(C)(C)c1cc(C(F)(F)F)cc(C(F)(F)F)c1`, the ED50 amounted to 0.5 mg/kg.

In the case of `Cc1ccccc1-c1cc(N2CCOCC2)ncc1N(C)C(=O)C(C)(C)c1cc(C(F)(F)F)cc(C(F)(F)F)c1` [BEFETUPITANT], the ED50 came to 0.2 mg/kg.

On to `Cc1ccccc1-c1cc(N2CCS(=O)(=O)CC2)ncc1N(C)C(=O)C(C)(C)c1cc(C(F)(F)F)cc(C(F)(F)F)c1`, for which the ED50 came to 0.8 mg/kg.

Values taken from ChEMBL document CHEMBL1138982 (Bioorg Med Chem Lett, 2006).
